Results: patent publication US4181731A, “Novel therapeutic application of 4-carbamoyl-5-hydroxyimidazole” (Sumitomo Chemical Company, Limited, priority 1978, dated 1980)

What was measured:
adjuvant arthritis = assay: Inhibitory effects on the adjuvant arthritis of rats (antirheumatic activity); type: in vivo; settings: for Foot Volume: control 2.34 ml; for Inhibition Rate: foot volume
Experimental: The antirheumatic activities on adjuvant arthritis were estimated according to the methods described in "Arzneimittel-Forschung (Drug Res.)", Vol. 22, p. 1959 (1972).
*Successive administration was performed immediately after inoculation of […]

Masuji nephritis = assay: Antinephritic effects on Masuji nephritis; type: in vivo; settings: for Urinary Protein: control 238.9; for Inhibition Ratio: urinary protein
From the text: The antinephritic activities were estimated according to the methods described in "Arerugii", Vol. 24, p. 472 (1975) (in Japanese).
*Successive oral administration began for 2 days before the injection of […]

[1] = Acute toxicity against mice; settings: mouse, in vivo, mice (ICR, male, 22-25 g)
From the text: Acute toxicity of Compound A against mice (ICR, male, body weight 22-25 g) was as follows.

mice (ICR, male) = assay: Subacute toxicities against mice (oral, 21 days); type: in vivo; settings: 100 mg/kg/day orally
Experimental: Subacute toxicities of Compound A against mice (ICR, male, body weight approximately 25 g) were as follows. The said compound was orally administered for 21 days. The dosage level was 100 mg/kg/day.

NC(=O)c1nc[nH]c1O [Compound A, 4-carbamoyl-5-hydroxyimidazole]
Foot Volume (adjuvant arthritis; 5 mg/kg/day × 21, p.o.): 1.28 mL | Foot Volume (adjuvant arthritis; 10 mg/kg/day × 21, p.o.): 0.88 mL | Foot Volume (adjuvant arthritis; 25 mg/kg/day × 21, p.o.): 0.44 mL | Inhibition Rate (adjuvant arthritis; 5 mg/kg/day × 21, p.o.): 45.3% | Inhibition Rate (adjuvant arthritis; 10 mg/kg/day × 21, p.o.): 62.3% | Inhibition Rate (adjuvant arthritis; 25 mg/kg/day × 21, p.o.): 81.2% | Urinary Protein (Masuji nephritis; 5 mg/kg/day × 16, p.o.): 147.6 mg/24 hrs. | Urinary Protein (Masuji nephritis; 10 mg/kg/day × 16, p.o.): 68.4 mg/24 hrs. | Urinary Protein (Masuji nephritis; 25 mg/kg/day × 16, p.o.): 28.4 mg/24 hrs. | Inhibition Ratio (Masuji nephritis; 5 mg/kg/day × 16, p.o.): 38.2% | Inhibition Ratio (Masuji nephritis; 10 mg/kg/day × 16, p.o.): 71.4% | Inhibition Ratio (Masuji nephritis; 25 mg/kg/day × 16, p.o.): 88.1% | LD50 ([1]; ip): > 500 mg/kg | LD50 ([1]; iv): > 130 mg/kg | LD50 ([1]; po): > 2000 mg/kg | Autopsy (mice (ICR, male)): No adverse effect | Body weight change (mice (ICR, male)): Normal | Clinical signs (mice (ICR, male)): No adverse effect except slight involution of the spleen | Food consumption (mice (ICR, male)): Normal | Haematology, overall finding (mice (ICR, male)): No adverse effect | Relative organ weight, Heart (average) (mice (ICR, male)): 0.49% | Relative organ weight, Kidney (average) (mice (ICR, male)): 1.50% | Relative organ weight, Liver (average) (mice (ICR, male)): 6.24% | Relative organ weight, Lung (average) (mice (ICR, male)): 0.81% | Relative organ weight, Spleen (average) (mice (ICR, male)): 0.30% | Relative organ weight, Testis (average) (mice (ICR, male)): 0.38% | Relative organ weight, Thymus (average) (mice (ICR, male)): 0.20% | Urinalysis, overall finding (mice (ICR, male)): No adverse effect | GOT (average) (mice (ICR, male); Haematology): 54.4 K.U. | Hematocrit value (average) (mice (ICR, male); Haematology): 35% | Hemoglobin (average) (mice (ICR, male); Haematology): 15.1 g/dL | Red blood cells (average) (mice (ICR, male); Haematology): 6.0 × 10^6 /mm^3 | White blood cells (average) (mice (ICR, male); Haematology): 6.5 × 10^4 /mm^3 | Glucose (urinalysis) (mice (ICR, male); Urinalysis): Negative | Occult blood (urinalysis) (mice (ICR, male); Urinalysis): Negative | Protein (urinalysis) (mice (ICR, male); Urinalysis): 30 to 100 mg/dL | pH (urinalysis) (mice (ICR, male); Urinalysis): 6.0-6.5
